In patent publication US20090181963A1, “3H-[1,2,3]TRIAZOLO[4,5-D]PYRIMIDINE COMPOUNDS, THEIR USE AS mTOR KINASE AND PI3 KINASE INHIBITORS, AND THEIR [sequence]” (Wyeth, priority 2008, published 2009) one finds IC50 data, which are given here for 28 compounds.

The structures appear in SMILES notation.

For orientation: IC50 means the concentration that gives 50% inhibition. The low end stands for inhibition by little substance, the high end for a need for much substance.

In one test the target is PI3 Kinase α (Homo sapiens, UniProt P42336). The test is described as follows: Fluorescence polarization assay for PI3K (PI3 Kinase α). The class given is biochemical. To be noted: diC8-PI(4,5)P2 substrate, 25 μM ATP, one hour at 25° C. (Fluorescence polarisation rises when a labelled molecule tumbles more slowly, as on binding a larger partner.)
PI3 Kinase α, sequence (P42336 whole entry): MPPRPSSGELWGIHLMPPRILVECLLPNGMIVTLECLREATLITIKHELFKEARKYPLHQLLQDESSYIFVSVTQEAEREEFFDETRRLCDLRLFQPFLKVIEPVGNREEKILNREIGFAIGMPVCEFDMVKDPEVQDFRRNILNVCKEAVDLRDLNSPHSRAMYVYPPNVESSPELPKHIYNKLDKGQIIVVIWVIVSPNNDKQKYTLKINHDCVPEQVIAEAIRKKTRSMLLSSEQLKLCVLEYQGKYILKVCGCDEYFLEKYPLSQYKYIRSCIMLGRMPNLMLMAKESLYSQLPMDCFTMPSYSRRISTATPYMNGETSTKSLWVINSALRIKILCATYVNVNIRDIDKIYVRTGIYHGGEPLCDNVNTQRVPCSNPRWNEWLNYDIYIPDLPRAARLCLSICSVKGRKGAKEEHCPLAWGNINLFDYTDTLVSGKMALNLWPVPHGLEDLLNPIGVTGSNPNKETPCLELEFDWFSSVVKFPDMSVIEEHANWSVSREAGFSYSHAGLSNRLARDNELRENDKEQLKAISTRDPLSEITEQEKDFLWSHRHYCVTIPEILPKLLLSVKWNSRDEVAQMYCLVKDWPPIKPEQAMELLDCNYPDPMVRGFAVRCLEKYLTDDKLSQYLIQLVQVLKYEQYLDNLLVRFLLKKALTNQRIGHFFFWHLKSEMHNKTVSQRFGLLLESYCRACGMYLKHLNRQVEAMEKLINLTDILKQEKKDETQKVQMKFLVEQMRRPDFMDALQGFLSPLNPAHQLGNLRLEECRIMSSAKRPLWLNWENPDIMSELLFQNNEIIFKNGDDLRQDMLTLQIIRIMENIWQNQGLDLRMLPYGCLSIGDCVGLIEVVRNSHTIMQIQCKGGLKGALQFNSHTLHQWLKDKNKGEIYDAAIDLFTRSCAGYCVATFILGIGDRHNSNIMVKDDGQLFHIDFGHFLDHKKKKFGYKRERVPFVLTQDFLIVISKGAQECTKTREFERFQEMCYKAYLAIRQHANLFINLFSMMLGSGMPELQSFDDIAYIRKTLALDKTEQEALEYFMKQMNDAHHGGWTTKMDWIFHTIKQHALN
PI3 Kinase α, sequence (P27986 whole entry partner): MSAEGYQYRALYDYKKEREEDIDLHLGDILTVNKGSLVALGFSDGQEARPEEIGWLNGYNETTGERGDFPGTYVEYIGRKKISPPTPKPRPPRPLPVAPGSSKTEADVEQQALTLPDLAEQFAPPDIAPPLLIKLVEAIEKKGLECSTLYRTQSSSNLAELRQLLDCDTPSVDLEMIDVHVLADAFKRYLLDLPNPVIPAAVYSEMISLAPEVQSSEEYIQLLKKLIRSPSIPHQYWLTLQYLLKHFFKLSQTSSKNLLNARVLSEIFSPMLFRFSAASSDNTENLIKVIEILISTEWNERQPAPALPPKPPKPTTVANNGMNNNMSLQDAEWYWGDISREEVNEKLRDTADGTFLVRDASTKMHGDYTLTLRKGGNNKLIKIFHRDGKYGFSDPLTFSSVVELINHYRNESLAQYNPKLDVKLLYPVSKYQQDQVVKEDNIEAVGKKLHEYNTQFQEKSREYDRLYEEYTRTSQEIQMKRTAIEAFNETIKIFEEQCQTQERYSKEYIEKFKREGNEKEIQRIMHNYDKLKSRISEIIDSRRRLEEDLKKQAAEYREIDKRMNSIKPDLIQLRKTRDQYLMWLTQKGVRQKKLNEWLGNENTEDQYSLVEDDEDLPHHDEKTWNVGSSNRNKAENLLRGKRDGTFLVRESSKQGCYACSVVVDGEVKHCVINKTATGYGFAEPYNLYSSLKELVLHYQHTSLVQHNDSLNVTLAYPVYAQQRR
The next test concerns the target PI3 Kinase γ (Homo sapiens, UniProt P48736). The test is described as follows: Fluorescence polarization assay for PI3K (PI3 Kinase γ). The class given is biochemical. To be noted: diC8-PI(4,5)P2 substrate, 25 μM ATP, one hour at 25° C.

PI3 Kinase γ, sequence (P48736 whole entry): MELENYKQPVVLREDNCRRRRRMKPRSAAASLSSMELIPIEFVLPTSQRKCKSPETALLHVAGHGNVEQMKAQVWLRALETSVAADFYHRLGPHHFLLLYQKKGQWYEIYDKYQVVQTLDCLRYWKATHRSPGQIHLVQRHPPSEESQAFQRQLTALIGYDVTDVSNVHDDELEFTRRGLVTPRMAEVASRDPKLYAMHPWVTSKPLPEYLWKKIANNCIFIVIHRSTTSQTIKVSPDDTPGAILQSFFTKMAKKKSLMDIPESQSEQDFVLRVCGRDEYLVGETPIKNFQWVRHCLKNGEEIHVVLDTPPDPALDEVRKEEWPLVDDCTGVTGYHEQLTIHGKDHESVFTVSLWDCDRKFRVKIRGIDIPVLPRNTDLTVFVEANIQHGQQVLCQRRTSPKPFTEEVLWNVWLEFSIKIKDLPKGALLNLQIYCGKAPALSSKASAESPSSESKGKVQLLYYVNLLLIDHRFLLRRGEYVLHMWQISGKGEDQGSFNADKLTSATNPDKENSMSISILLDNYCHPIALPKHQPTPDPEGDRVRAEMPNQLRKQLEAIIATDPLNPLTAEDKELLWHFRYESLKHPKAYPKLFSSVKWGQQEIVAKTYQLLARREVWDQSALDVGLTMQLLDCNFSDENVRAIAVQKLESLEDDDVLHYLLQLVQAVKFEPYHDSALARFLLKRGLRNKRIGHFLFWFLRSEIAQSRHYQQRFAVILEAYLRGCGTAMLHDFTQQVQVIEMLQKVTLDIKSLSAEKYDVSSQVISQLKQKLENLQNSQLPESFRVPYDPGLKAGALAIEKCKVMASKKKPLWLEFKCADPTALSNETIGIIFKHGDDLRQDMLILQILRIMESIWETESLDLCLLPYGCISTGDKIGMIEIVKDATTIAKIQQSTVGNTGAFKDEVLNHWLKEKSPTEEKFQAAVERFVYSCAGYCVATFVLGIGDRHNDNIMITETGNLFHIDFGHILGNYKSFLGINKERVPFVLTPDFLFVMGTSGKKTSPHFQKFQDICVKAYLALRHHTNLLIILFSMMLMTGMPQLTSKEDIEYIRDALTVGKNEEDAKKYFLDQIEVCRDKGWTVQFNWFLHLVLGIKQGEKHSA

On to `OCc1cccc(-c2nc(N3CCOCC3)c3nnn(-c4cccc(CO)c4)c3n2)c1` [Example 117, [(7-morpholin-4-yl-3H-[1,2,3]triazolo[4,5-d]pyrimidine-3,5-diyl)di-3,1-phenylene]dimethanol], for which the IC50 against PI3 Kinase α was 38.3 nM; against PI3 Kinase γ, 144 nM.
For `O=C(O)c1cccc(-n2nnc3c(N4CCOCC4)nc(-c4cccc(O)c4)nc32)c1` [Example 118, 3-[5-(3-hydroxyphenyl)-7-morpholin-4-yl-3H-[1,2,3]triazolo[4,5-d]pyrimidin-3-yl]benzoic acid], the IC50 came to 27.5 nM against PI3 Kinase α and 102 nM against PI3 Kinase γ.
The corresponding values for `NC(=O)c1cccc(-n2nnc3c(N4CCOCC4)nc(-c4cccc(O)c4)nc32)c1` [Example 119, 3-[5-(3-hydroxyphenyl)-7-morpholin-4-yl-3H-[1,2,3]triazolo[4,5-d]pyrimidin-3-yl]benzamide] are 22.5 nM and 314 nM.
Regarding `O=C(c1cccc(-n2nnc3c(N4CCOCC4)nc(-c4cccc(O)c4)nc32)c1)N1CCC(N2CCCC2)CC1` [Example 120, 3-(7-morpholin-4-yl-3-{3-[(4-pyrrolidin-1-ylpiperidin-1-yl)carbonyl]phenyl}-3H-[1,2,3]triazolo[4,5-d]pyrimidin-5-yl)phenol], the values for the IC50 on PI3 Kinase α and on PI3 Kinase γ were 15.5 nM and 290 nM, respectively.
On to `CNC(=O)c1cccc(-n2nnc3c(N4CCOCC4)nc(-c4cccc(O)c4)nc32)c1` [Example 121, 3-[5-(3-hydroxyphenyl)-7-morpholin-4-yl-3H-[1,2,3]triazolo[4,5-d]pyrimidin-3-yl]-N-methylbenzamide], for which the values for the IC50 at PI3 Kinase α and at PI3 Kinase γ were 36 nM and 551 nM, respectively.
`CN(C)CCNC(=O)c1cccc(-n2nnc3c(N4CCOCC4)nc(-c4cccc(O)c4)nc32)c1` [Example 122, N-[2-(dimethylamino)ethyl]-3-[5-(3-hydroxyphenyl)-7-morpholin-4-yl-3H-[1,2,3]triazolo[4,5-d]pyrimidin-3-yl]benzamide]: the IC50 was 56.5 nM on PI3 Kinase α and 260 nM against PI3 Kinase γ.
The corresponding values for `O=C(Nc1ccccc1)Nc1ccc(-c2nc(N3CCOCC3)c3nnn(-c4cccc(C(=O)O)c4)c3n2)cc1` [Example 123, 3-(7-morpholin-4-yl-5-{4-[(phenylcarbamoyl)amino]phenyl}-3H-[1,2,3]triazolo[4,5-d]pyrimidin-3-yl)benzoic acid] are 4 nM and 8.5 nM.
The corresponding values for `CC(C)(C)OC(=O)N1CC(n2nnc3c(N4CCOCC4)nc(-c4cccc(O)c4)nc32)C1` [Example 124, tert-butyl 3-[5-(3-hydroxyphenyl)-7-morpholin-4-yl-3H-[1,2,3]triazolo[4,5-d]pyrimidin-3-yl]azetidine-1-carboxylate] are 108 nM and 890 nM.
As to `Oc1cccc(-c2nc(N3CCOCC3)c3nnn(C4CNC4)c3n2)c1` [Example 125, 3-(3-azetidin-3-yl-7-morpholin-4-yl-3H-[1,2,3]triazolo[4,5-d]pyrimidin-5-yl)phenol], the IC50 on PI3 Kinase α worked out at 130 nM; against PI3 Kinase γ it was 1960 nM.
`Nc1ccccc1C(=O)N1CC(n2nnc3c(N4CCOCC4)nc(-c4cccc(O)c4)nc32)C1` [Example 126, (2-amino-phenyl)-{3-[5-(3-hydroxy-phenyl)-7-morpholin-4-yl-[1,2,3]triazolo[4,5-d]pyrimidin-3-yl]-azetidin-1-yl}-methanone]: the results for the IC50 against PI3 Kinase α and at PI3 Kinase γ were 60.5 nM and 873 nM, respectively.
In the case of `Oc1cccc(-c2nc(N3CCOCC3)c3nnn(C4CN(Cc5ccccc5)C4)c3n2)c1` [Example 127, 3-[3-(1-benzylazetidin-3-yl)-7-morpholin-4-yl-3H-[1,2,3]triazolo[4,5-d]pyrimidin-5-yl]phenol], the half-maximal inhibitory concentration (IC50) against PI3 Kinase α was 134 nM; against PI3 Kinase γ it was 1240 nM.
The corresponding values for `Oc1cccc(-c2nc(N3CCOCC3)c3nnn(C4CN(Cc5ccc(F)nc5)C4)c3n2)c1` [Example 128, 3-(3-{1-[(6-fluoropyridin-3-yl)methyl]azetidin-3-yl}-7-morpholin-4-yl-3H-[1,2,3]triazolo[4,5-d]pyrimidin-5-yl)phenol] are 164 nM and 1100 nM.
On to `CC(C)(C)OC(=O)N1CC(n2nnc3c(N4CCOCC4)nc(-c4ccc(NC(=O)Nc5ccncc5)cc4)nc32)C1` [Example 129, tert-butyl 3-(7-morpholin-4-yl-5-{4-[(pyridin-4-ylcarbamoyl)amino]phenyl}-3H-[1,2,3]triazolo[4,5-d]pyrimidin-3-yl)azetidine-1-carboxylate], for which the IC50 was 30 nM against PI3 Kinase α and 156 nM against PI3 Kinase γ.
The corresponding values for `CC(C)(C)OC(=O)N1CC(n2nnc3c(N4CCOCC4)nc(-c4ccc(NC(=O)Nc5cccnc5)cc4)nc32)C1` [Example 130, tert-butyl 3-(7-morpholin-4-yl-5-{4-[(pyridin-3-ylcarbamoyl)amino]phenyl}-3H-[1,2,3]triazolo[4,5-d]pyrimidin-3-yl)azetidine-1-carboxylate] are 34 nM and 165 nM.
With `CC(C)(C)OC(=O)N1CC(n2nnc3c(N4CCOCC4)nc(-c4ccc(NC(=O)Nc5cccs5)cc4)nc32)C1` [Example 132, tert-butyl 3-(7-morpholin-4-yl-5-{4-[(2-thienylcarbamoyl)amino]phenyl}-3H-[1,2,3]triazolo[4,5-d]pyrimidin-3-yl)azetidine-1-carboxylate], the IC50 on PI3 Kinase α is 21 nM; on PI3 Kinase γ, 1430 nM.
As for `Nc1ccc(-c2nc(N3CCOCC3)c3nnn(CC(F)(F)F)c3n2)cc1` [Example 133, 4-[7-morpholin-4-yl-3-(2,2,2-trifluoroethyl)-3H-[1,2,3]triazolo[4,5-d]pyrimidin-5-yl]aniline], the IC50 came to 370 nM on PI3 Kinase α and 1380 nM on PI3 Kinase γ.
The corresponding values for `O=C(Nc1ccncc1)Nc1ccc(-c2nc(N3CCOCC3)c3nnn(CC(F)(F)F)c3n2)cc1` [Example 134, 1-{4-[7-morpholin-4-yl-3-(2,2,2-trifluoroethyl)-3H-[1,2,3]triazolo[4,5-d]pyrimidin-5-yl]phenyl}-3-pyridin-4-ylurea] are 2 nM and 25.5 nM.
`O=C(Nc1ccc(-c2nc(N3CCOCC3)c3nnn(CC(F)(F)F)c3n2)cc1)Nc1cccnc1` [Example 135, 1-{4-[7-morpholin-4-yl-3-(2,2,2-trifluoroethyl)-3H-[1,2,3]triazolo[4,5-d]pyrimidin-5-yl]phenyl}-3-pyridin-3-ylurea]: the IC50 against PI3 Kinase α was determined as 9.5 nM; against PI3 Kinase γ, 30 nM.
For `O=C(Nc1ccc(-c2nc(N3CCOCC3)c3nnn(CC(F)(F)F)c3n2)cc1)Nc1cncnc1` [Example 136, 1-{4-[7-morpholin-4-yl-3-(2,2,2-trifluoroethyl)-3H-[1,2,3]triazolo[4,5-d]pyrimidin-5-yl]phenyl}-3-pyrimidin-5-ylurea], the results for the IC50 at PI3 Kinase α and on PI3 Kinase γ were 38 nM and 88 nM, respectively.
With `CN(C)c1ccc(NC(=O)Nc2ccc(-c3nc(N4CCOCC4)c4nnn(CC(F)(F)F)c4n3)cc2)cc1` [Example 137, 1-[4-(dimethylamino)phenyl]-3-{4-[7-morpholin-4-yl-3-(2,2,2-trifluoroethyl)-3H-[1,2,3]triazolo[4,5-d]pyrimidin-5-yl]phenyl}urea], the IC50 against PI3 Kinase α was found to be 13 nM; against PI3 Kinase γ it was 30.5 nM.
Regarding `O=C(Nc1ccc(CCO)cc1)Nc1ccc(-c2nc(N3CCOCC3)c3nnn(CC(F)(F)F)c3n2)cc1` [Example 138, 1-[4-(2-hydroxyethyl)phenyl]-3-{4-[7-morpholin-4-yl-3-(2,2,2-trifluoroethyl)-3H-[1,2,3]triazolo[4,5-d]pyrimidin-5-yl]phenyl}urea], the IC50 stood at 3 nM against PI3 Kinase α and 12.5 nM against PI3 Kinase γ.
As for `CN(CCNC(=O)Nc1ccc(-c2nc(N3CCOCC3)c3nnn(CC(F)(F)F)c3n2)cc1)C(=O)OC(C)(C)C` [Example 139, tert-butyl methyl{2-[({4-[7-morpholin-4-yl-3-(2,2,2-trifluoroethyl)-3H-[1,2,3]triazolo[4,5-d]pyrimidin-5-yl]phenyl}carbamoyl)amino]ethyl}carbamate], the half-maximal inhibitory concentration (IC50) against PI3 Kinase α came to 318 nM; against PI3 Kinase γ, 1500 nM.
`CNCCNC(=O)Nc1ccc(-c2nc(N3CCOCC3)c3nnn(CC(F)(F)F)c3n2)cc1` [Example 140, 1-[2-(methylamino)ethyl]-3-{4-[7-morpholin-4-yl-3-(2,2,2-trifluoroethyl)-3H-[1,2,3]triazolo[4,5-d]pyrimidin-5-yl]phenyl}urea]: the 50% inhibitory concentration (IC50) against PI3 Kinase α amounted to 26.5 nM; at PI3 Kinase γ, 118 nM.
For `O=C(Nc1ccc(-c2nc(N3CCOCC3)c3nnn(CC(F)(F)F)c3n2)cc1)Nc1cccs1` [Example 141, 1-{4-[7-morpholin-4-yl-3-(2,2,2-trifluoroethyl)-3H-[1,2,3]triazolo[4,5-d]pyrimidin-5-yl]phenyl}-3-(2-thienyl)urea], the IC50 against PI3 Kinase α amounted to 6.5 nM; against PI3 Kinase γ, 30 nM.
With `O=C(Nc1ccc(-c2nc(N3CCOCC3)c3nnn(CC(F)(F)F)c3n2)cc1)Nc1ccsc1` [Example 142, 1-{4-[7-morpholin-4-yl-3-(2,2,2-trifluoroethyl)-3H-[1,2,3]triazolo[4,5-d]pyrimidin-5-yl]phenyl}-3-(3-thienyl)urea], the values for the IC50 against PI3 Kinase α and against PI3 Kinase γ were 4 nM and 20 nM, respectively.
The corresponding values for `CC(C)(C)OC(=O)N1CCC(n2nnc3c(N4CCOCC4)nc(-c4cccc(O)c4)nc32)CC1` [Example 143, tert-butyl 4-[5-(3-hydroxyphenyl)-7-morpholin-4-yl-3H-[1,2,3]triazolo[4,5-d]pyrimidin-3-yl]piperidine-1-carboxylate] are 189 nM and 3790 nM.
The corresponding values for `Oc1cccc(-c2nc(N3CCOCC3)c3nnn(C4CCNCC4)c3n2)c1` [Example 144, 3-(7-morpholin-4-yl-3-piperidin-4-yl-3H-[1,2,3]triazolo[4,5-d]pyrimidin-5-yl)phenol] are 81.5 nM and 406 nM.
The corresponding values for `CN(C)CCCOc1ccc(CN2CCC(n3nnc4c(N5CCOCC5)nc(-c5cccc(O)c5)nc43)CC2)cc1` [Example 146, 3-[3-(1-{4-[3-(dimethylamino)propoxy]benzyl}piperidin-4-yl)-7-morpholin-4-yl-3H-[1,2,3]triazolo[4,5-d]pyrimidin-5-yl]phenol] are 13 nM and 280 nM.
